Data on one compound can be found in patent US5476944A, “Derivatives of cyclic phenolic thioethers” (G. D. Searle & Co., priority 1994, dated 1995).

Each structure is given as a SMILES string.

What all share (assay type): biochemical
One test has as its target T1, COX-II (Homo sapiens, UniProt P35354).
T1 construct: made in house; host or cells: SF9 insect cells, recombinant baculovirus (pVL1393); coding fragment from Cayman Chemical
T1 sequence (P35354 18-604): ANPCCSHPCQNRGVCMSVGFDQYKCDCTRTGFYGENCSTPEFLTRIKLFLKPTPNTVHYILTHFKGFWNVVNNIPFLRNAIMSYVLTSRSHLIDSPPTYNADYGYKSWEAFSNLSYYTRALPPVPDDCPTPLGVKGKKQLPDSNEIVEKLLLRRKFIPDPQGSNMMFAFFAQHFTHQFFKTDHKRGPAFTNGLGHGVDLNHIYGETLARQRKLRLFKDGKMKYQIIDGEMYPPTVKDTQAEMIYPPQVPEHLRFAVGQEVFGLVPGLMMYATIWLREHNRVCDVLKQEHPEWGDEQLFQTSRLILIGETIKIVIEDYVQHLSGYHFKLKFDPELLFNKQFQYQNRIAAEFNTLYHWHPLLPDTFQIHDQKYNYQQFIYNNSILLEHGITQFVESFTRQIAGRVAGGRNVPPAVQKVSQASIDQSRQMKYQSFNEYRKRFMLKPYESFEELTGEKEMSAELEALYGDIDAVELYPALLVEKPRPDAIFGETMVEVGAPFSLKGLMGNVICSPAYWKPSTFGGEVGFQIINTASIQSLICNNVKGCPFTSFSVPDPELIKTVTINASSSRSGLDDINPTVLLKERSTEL
The experiment in a line: Human Enzyme Assay, recombinant COX-II (PGE2 ELISA). The protocol: (§1) The compounds of the invention are evaluated with respect to COX-I and COX-II activity in vitro using an enzyme based assay according to the following assay procedure.
(§2) (a) Preparation of Recombinant COX Baculoviruses
(§3) A 2.0 kb fragment containing the coding region for either human or murine COX-I (Caymen Chemical, Ann Arbor, Mich.), or human or murine COX-II (Caymen Chemical, Ann Arbor, Mich.), was cloned into a BamH1 site of the baculovirus transfer vector pVL1393 (Invitrogen, Palo Alto, Calif.) to generate a baculovirus transfer vector. Recombinant baculoviruses were isolated by transfecting 4 μg of baculovirus transfer vector DNA into SF9 cells (2×10e8) (Invitrogen, Palo Alto, Calif.) along with 200 ng of linearized bacium by the phosphate method. See M. D. Summers et al., "A Manual of Methods for Baculovirus Vectors and Insect Cell Culture Procedure," TEXAS AGRICULTURE EXPERIMENTAL STATION BULLETIN, No. 1555 (1987), which is incorporated herein by reference. Recombinant viruses were purified by three rounds of plaque purification, and high titer (10e7-10e8 pfu/ml) stocks of virus were prepared. For large scale production, SF9 insect cells (Invitrogen, Palo Alto, Calif.) were infected in 10 liter fermentors (0.5×10^6 /ml) with the recombinant baculovirus stock, such that the multiplicity of infection was 0.1. After 72 hours, the cells were centrifuged and the cell pellet was homogenized in Tris/Sucrose (50 mM: 25%, pH 8.0) containing 1% CHAPS. The homogenate was centrifuged at 10,000×G for 30 minutes, and the resultant supernatant was stored at -80° C. before being assayed for COX activity.
(§4) b. Assay for COX-I and COX-II activity:
(§5) COX activity was assayed as PGE2 formed/μg protein/time using an ELISA (Caymen Chemical, Ann Arbor, Mich.) to detect the prostaglandin E2 released. CHAPS-solubilized insect cell membranes containing the appropriate COX enzyme were incubated in a potassium phosphate buffer (50 mM, pH 8.0) containing phenol (0.5 mM), and heme (1 μM) with the addition of arachidonic acid (10 μM). Compounds of the present invention were pre-incubated with the enzyme for 10-20 minutes prior to the addition of the COX-I and COX-II enzyme substrate arachidonic acid (10 μM). Any reaction between the arachidonic acid and the enzyme was stopped after ten minutes at 37° C./room temperature by transferring 40 μl of reaction mix into […] ELISA buffer and 25 μM indomethacin. The PGE2 formed was measured by standard ELISA technology (Cayman Chemical, Ann Arbor, Mich.).
(§6) The results for this assay, as well as for the next assay (COX-II Cell Fibroblast Assay) are expressed in terms of COX-I or II activity as an IC50 value (50% inhibitory concentration), as defined as the amount of prostaglandin E2 (PGE2) formed per protein per time in response to the enzyme substrate arachidonic acid.
A general note: ELISA stands for enzyme-linked immunosorbent assay.

The next test deals with T2, 5-lipoxygenase (Rattus norvegicus, UniProt P12527).
T2 construct: The 100,000×g supernatant fraction of Rat Basophilic Leukemia Cell Homogenate (RBL-1); endogenous in cells; host or cells: RBL-1 (rat basophilic leukemia) cells, 100,000xg supernatant of homogenate
T2 sequence (P12527 1-673): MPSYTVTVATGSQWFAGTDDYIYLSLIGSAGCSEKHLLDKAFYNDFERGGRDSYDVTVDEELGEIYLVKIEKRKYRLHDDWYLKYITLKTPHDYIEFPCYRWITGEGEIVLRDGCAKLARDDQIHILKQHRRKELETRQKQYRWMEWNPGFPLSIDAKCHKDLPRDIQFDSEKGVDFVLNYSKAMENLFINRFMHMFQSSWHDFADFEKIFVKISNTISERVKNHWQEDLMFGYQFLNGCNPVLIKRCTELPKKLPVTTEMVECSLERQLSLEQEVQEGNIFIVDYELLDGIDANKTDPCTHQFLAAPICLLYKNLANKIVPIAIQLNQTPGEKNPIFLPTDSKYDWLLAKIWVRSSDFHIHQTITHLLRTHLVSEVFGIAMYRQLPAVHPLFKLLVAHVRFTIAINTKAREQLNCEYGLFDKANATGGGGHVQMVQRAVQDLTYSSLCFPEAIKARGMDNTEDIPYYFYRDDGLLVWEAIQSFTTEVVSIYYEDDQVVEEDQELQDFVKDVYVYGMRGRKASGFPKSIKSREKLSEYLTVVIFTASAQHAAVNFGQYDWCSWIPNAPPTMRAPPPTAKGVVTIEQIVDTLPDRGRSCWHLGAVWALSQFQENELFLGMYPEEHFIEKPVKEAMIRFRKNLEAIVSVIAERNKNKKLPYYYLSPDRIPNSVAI
Briefly: Inhibition of 5-lipoxygenase, in vitro (5-HETE formation, RBL-1 homogenate supernatant). Particulars: RBL-1 supernatant. The protocol:
The compounds of the invention are evaluated with respect to 5-lipoxygenaseinhibition according to the following assay procedure.
Inhibition of 5-lipoxygenase, in vitro:
The 100,000×g supernatant fraction of Rat Basophilic Leukemia Cell Homogenate (RBL-1) serves as a 5-lipoxygenase enzyme source. The enzyme is incubated with [1-^4 C)-arachidonic acid and Ca++ in the presence and absence of test compound. The product of 5-lipoxygenase, 5-hydroxyeicosatetraenoic acid (5-HETE), is separated by thin-layer chromatography and measured by radioactivity. A compound inhibiting 5-HETE synthesis by 30% or more is considered active at that concentration.
For comparison the compound of Formula XX, a known 5-lipoxygenase inhibitor described in U.S. Pat. No. 4,755,524 was used: [drawing 29] (±)[2S*-[[3,5-bis(1,1-dimethylethyl)-4-hydroxyphenyl]thio]-1R*-methylpro poxy]acetic acid.

Another test addresses T3, COX-I (Homo sapiens, UniProt P23219).
T3 construct: made in house; host or cells: SF9 insect cells, recombinant baculovirus (pVL1393); coding fragment from Cayman Chemical
Briefly: Human Enzyme Assay, recombinant COX-I (PGE2 ELISA). The protocol: as §1, §2, §3, §4, §5, §6

T3 sequence (P23219 24-599): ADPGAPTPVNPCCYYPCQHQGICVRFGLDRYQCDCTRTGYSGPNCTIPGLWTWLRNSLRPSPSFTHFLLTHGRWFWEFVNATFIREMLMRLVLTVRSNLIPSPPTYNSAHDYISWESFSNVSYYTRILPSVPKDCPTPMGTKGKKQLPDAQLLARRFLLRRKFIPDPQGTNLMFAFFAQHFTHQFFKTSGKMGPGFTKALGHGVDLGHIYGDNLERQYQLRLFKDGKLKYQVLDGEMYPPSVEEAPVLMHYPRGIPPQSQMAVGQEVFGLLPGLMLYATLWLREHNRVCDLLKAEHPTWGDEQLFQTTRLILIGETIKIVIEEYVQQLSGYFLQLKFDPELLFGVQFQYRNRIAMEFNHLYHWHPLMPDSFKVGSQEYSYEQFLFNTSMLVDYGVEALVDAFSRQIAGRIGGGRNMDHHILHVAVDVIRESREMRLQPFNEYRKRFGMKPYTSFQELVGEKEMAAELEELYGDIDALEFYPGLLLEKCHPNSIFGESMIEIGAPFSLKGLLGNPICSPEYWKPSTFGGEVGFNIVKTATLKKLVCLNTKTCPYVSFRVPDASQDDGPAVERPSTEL

In the case of `CC(C)(C)c1cc(S[C@H]2CCCC[C@H]2OCC(=O)O)cc(C(C)(C)C)c1` (racemic) [Example 72, (±)cis-2-[[2-[[3,5-bis(1,1-dimethylethyl)phenyl]thio]cyclohexyl]oxy]acetic acid], the IC50 (as a rule, the concentration at which inhibition is half-maximal) is 4.11 µM at COX-II, > 100 µM at 5-lipoxygenase and > 100 µM on COX-I.
